Reference: BigSolDB 2.1

Conditions: in NMP

CC(C)Oc1ccc2c(=O)c(-c3ccccc3)coc2c1
Conditions | solubility (mole fraction)
278.15 K | 0.0605
283.15 K | 0.0683
288.15 K | 0.078
293.15 K | 0.0892
298.15 K | 0.101
303.15 K | 0.113
308.15 K | 0.129
313.15 K | 0.146
318.15 K | 0.165
323.15 K | 0.186
